What was measured:
[1] = system: epithelium of intact trachea; experiment: Transepithelial potential difference (Vt) and impedance (Rt) of intact perfused trachea in vitro; parameters: species or system Hartley guinea pigs; details: for effect on transepithelial impedance (Rt) / effect on transepithelial potential difference (Vt): intact guinea pig tracheal segment, each agent tested four times; for effect on transepithelial impedance (Rt): current pulses 20 μA; for effect on transepithelial impedance (Rt) / effect on Vt, summary of bar graphs (on average): agent concentration and bath as in Tables 1 and 2; for effect on transepithelial potential difference (Vt): open-circuit, 37° C., agent concentration and bath (intraluminal/extraluminal) as in Tables 1 and 2; for effect on Vt, summary of bar graphs (on average): means of four preparations
Description: Under open circuit conditions, the first current electrode 60 (FIG. 1) introduces an electrical current into the perfusion liquid flowing into the perfusion device 12. The electrical current flows into the perfusion device, where it emanates from the inlet portion 64 (FIG. 7) and flows across the trachea wall to the second current electrode 62. The first voltage-sensing electrode 56 (FIG. 1) is in electrically continuity with the perfusion liquid in the trachea 14 (via cannula 78, tube 100, and conduits 38 and 46) and therefore senses the electrical potential inside the trachea. The second voltage-sensing electrode 58 senses the electrical potential in the extraluminal bath 54 outside of the trachea. The amplifier 18 calculates the electrical potential difference between the voltage-sensing electrodes 56, 58, which represents the transepithelial potential difference of the trachea. The amplifier 18 can also calculate the transepithelial impedance across the trachea wall based on the applied current and the measured potential difference. […] Hartley guinea pigs were anesthetized by i.p. injection of sodium pentobarbital (65 mg/kg). A 4.2-cm tracheal segment was removed and mounted on a perfusion device 12 at its in situ length. The perfusion device was placed in an extraluminal bath containing a modified Krebs-Henseleit […] solution, and was perfused at 24 ml/min with MKH solution from an intraluminal bath. Water was used as a heat transfer fluid and was supplied to the heat exchanger 20 and the outer jackets of vessels 26, 28 to maintain the temperature of the extraluminal and intraluminal baths at about 37° C. Current pulses (20 μA, 5 s duration, 50 s intervals) were delivered through the current electrodes, while the changes in the transepithelial potential difference (Vt) caused by the current pulses were monitored under open-circuit conditions. Alternatively, and as mentioned above, voltage pulses can be applied across the voltage electrodes under voltage-clamp conditions, while the changes in short circuit current are monitored. The preparation was equilibrated for 2.5 hours to allow Vt and the pressure drop (ΔP) to stabilize before the current pulses were delivered. Basal Vt (the transepithelial voltage in the basal, or steady, state of an unstimulated epithelium) was 14.8±0.8 mV. […] To determine the effects of relaxant agents, when the mechanical and bioelectric responses reached their plateau responses to MCh, the trachea was treated with agents added to the extraluminal or intraluminal bath. The agents used in this example are described in tables 1 and 2 below. The effects of the agents were analyzed statistically using student's paired t-test. P<0.05 was accepted as significant, and is indicated by an asterisk in FIGS. 8-15. The results are presented as means±SE. Each agent was tested four times. Amiloride, NPPB and bumetanide were dissolved in dimethyl sulfoxide (DMSO) (with a final concentration equal to or less than 0.04%). The other agents were prepared in MKH. Terbutaline, histamine, ouabain and bumetanide were added to the extraluminal bath; the other agents were added to the intraluminal bath. Hypersmolar solutions were prepared by adding osmolytes to MKH solution.

[2] = system: smooth muscle of intact trachea; experiment: Pressure drop (ΔP) of perfusion liquid through intact trachea: smooth muscle contraction/relaxation; parameters: species or system Hartley guinea pigs; details: for effect on differential pressure (ΔP), smooth muscle contraction or relaxation: intact guinea pig tracheal segment perfused at 24 ml/min, agent concentration and bath as in Tables 1 and 2, relaxation observed after pre-contraction with MCh
Description: As described above, the first port 50 of the differential pressure transducer 16 is in fluid communication with the openings 82 in the first cannula 78 and the second port 52 of the differential pressure transducer 16 is in fluid communication with the openings 88 in the second cannula 84. As a result, the differential pressure transducer 16 “sees” the pressure of the perfusion liquid flowing through the trachea 14 at the openings 82 and 88 and can calculate the pressure drop (ΔP) of the perfusion liquid between these two locations (as depicted in FIG. 7). […] Hartley guinea pigs were anesthetized by i.p. injection of sodium pentobarbital (65 mg/kg). A 4.2-cm tracheal segment was removed and mounted on a perfusion device 12 at its in situ length. The perfusion device was placed in an extraluminal bath containing a modified Krebs-Henseleit […] solution, and was perfused at 24 ml/min with MKH solution from an intraluminal bath. Water was used as a heat transfer fluid and was supplied to the heat exchanger 20 and the outer jackets of vessels 26, 28 to maintain the temperature of the extraluminal and intraluminal baths at about 37° C. Current pulses (20 μA, 5 s duration, 50 s intervals) were delivered through the current electrodes, while the changes in the transepithelial potential difference (Vt) caused by the current pulses were monitored under open-circuit conditions. Alternatively, and as mentioned above, voltage pulses can be applied across the voltage electrodes under voltage-clamp conditions, while the changes in short circuit current are monitored. The preparation was equilibrated for 2.5 hours to allow Vt and the pressure drop (ΔP) to stabilize before the current pulses were delivered. Basal Vt (the transepithelial voltage in the basal, or steady, state of an unstimulated epithelium) was 14.8±0.8 mV. […] To determine the effects of relaxant agents, when the mechanical and bioelectric responses reached their plateau responses to MCh, the trachea was treated with agents added to the extraluminal or intraluminal bath. The agents used in this example are described in tables 1 and 2 below. The effects of the agents were analyzed statistically using student's paired t-test. P<0.05 was accepted as significant, and is indicated by an asterisk in FIGS. 8-15. The results are presented as means±SE. Each agent was tested four times. Amiloride, NPPB and bumetanide were dissolved in dimethyl sulfoxide (DMSO) (with a final concentration equal to or less than 0.04%). The other agents were prepared in MKH. Terbutaline, histamine, ouabain and bumetanide were added to the extraluminal bath; the other agents were added to the intraluminal bath. Hypersmolar solutions were prepared by adding osmolytes to MKH solution.

Row | EC50 ([2]; Cavia porcellus, methacholine in the extraluminal bath, read-out: EC50 for pre-contracting the trachea) [nM] | SMILES | effect on transepithelial potential (Vt) during pre-contraction ([1]; MCh 3×10^−7M in the extraluminal bath) | effect on transepithelial impedance (Rt) [1] | effect on transepithelial potential difference (Vt) [1] | effect on differential pressure (ΔP), smooth muscle contraction or relaxation [2] | effect on Vt, summary of bar graphs (on average) [1]
1 | 300 | CC(=O)OC(C)C[N+](C)(C)C (centres unmarked) [methacholine] | induced transepithelial hyperpolarization |  |  |  | 
2 |  | OC[C@@H](O)[C@@H](O)[C@H](O)[C@H](O)CO [D-M, D-mannitol] |  | increased Rt | depolarization | relaxation | 
3 |  | CCCCNc1cc(C(=O)O)cc(S(N)(=O)=O)c1Oc1ccccc1 [Bumetanide] |  | did not effect Rt | depolarization | small degree of relaxation of the trachea | 
4 |  | C[C@@H]1O[C@@H](O[C@H]2C[C@@H](O)[C@]3(CO)[C@H]4[C@H](O)C[C@]5(C)[C@@H](C6=CC(=O)OC6)CC[C@]5(O)[C@@H]4CC[C@]3(O)C2)[C@H](O)[C@H](O)[C@H]1O [Ouabain] |  | decrease in Rt | immediate depolarization | delayed contraction of the trachea | complete
5 |  | CC(C)(C)NCC(O)c1cc(O)cc(O)c1 (centres unmarked) [Terbutaline] |  | did not effect Rt | transient depolarization in three of the four preparations followed by slow hyperpolarization | relaxation | did not effect Vt appreciably
6 |  | NCCc1c[nH]cn1 [Histamine] |  | did not effect Rt | variable Vt responses | contraction | did not effect Vt appreciably
7 |  | [Cl-].[Na+] [NaCl] |  | decreased Rt | depolarization | relaxation | 
8 |  | N=C(N)NC(=O)c1nc(Cl)c(N)nc1N [amiloride, Amiloride] |  | increase in Rt | depolarization of the epithelium | Neither agent affected ΔP | 
9 |  | O=C(O)c1cc([N+](=O)[O-])ccc1NCCCc1ccccc1 [NPPB] |  | negligible effect on Rt | depolarization caused by NPPB was slower to develop and greater in magnitude | Neither agent affected ΔP | 

Source: patent US7907999B2, “Apparatus and method for measuring physiological characteristics of an intact trachea in vitro” (priority 2006, dated 2011)
